Assays:
[1] = system: RORγt target genes in KP/C tumor samples; assay: RORγt target gene expression in KP/C tumors (qPCR); type: in vivo, mouse
Protocol: For RNA isolation & gene expression, ears are collected on day 4 in RNAlater (Qiagen) and stored at 4°C until processed. Ears were homogenized using Procellys 24 homogenizer & hard tissue homogenizing beads (Bertin Instruments), 2 cycles of 30 seconds @ 6000 rpm in RLT lysis buffer according to manufacturer’s instructions. RNA was isolated using RNAeasy Plus MiniPrep columns (Qiagen) and cDNA generated using SuperScript VILO cDNA Synthesis kit (Invitrogen). Gene expression was quantified using TaqMan Fast Master Mix & and TaqMan FAM-MGB probe sets (Applied Biosystems): Gapdh, Mm99999915_g1, Il17a, Mm00439618_m1, Il17f, Mm00521423_m1, Il22, Mm01226722_g1 & Bclxl, Mm00437783_m1. QPCR reactions were run on QuantStudio 7 instrument. Relative quantification and fold changes were calculated using ddCT values against Gapdh and normalized to control-treated animals. For PDAC xenografts, RNA was isolated from tumor sections using Qiagen RNeasy kit (cat#74106), then cDNA was prepared using 2 μg of RNA and the high capacity RNA to cDNA kit (Applied Biosystems, cat#4387406) as per manufacturer’s instructions. Biomarker expression was determined using Taqman gene expression probes (S1 Table) and Universal master mix (ThermoFisher Scientific cat#4305719) with expression levels normalized to Gapdh. […]

[2] = Intra-tumoral compound concentration, KP/C mouse model; type: in vivo; conditions: 16 hours post dosing, mean ± SD
Protocol: In the IMQ-induced inflammation model, whole blood (300–500 μL) was collected and centrifuged (1000 g x 10 min) at 20° C to obtain plasma samples. […] Plasma standard curves were prepared by adding each test compound in to mouse plasma and serial diluting to desired concentration. Blank tumor homogenate and blank plasma was add to plasma standards and tumor homogenate samples, respectively, at 1:1 (v:v) ratio for matrix match of tumor sample analysis. An aliquot of 50 μL of each plasma sample, each tumor sample and each corresponding standards was added to 200 μL of acetonitrile with 100 ng/mL of carbutamide (Sigma Aldrich, St. Louis, MO), internal standard (IS), for protein precipitation, then filtered through a 96-well Orochem filtration plate (Orochem Technologies Inc., Naperville IL). Each extracted test compound in resultant supernatant was analyzed with appropriate liquid chromatography column eluting to a Sciex QTRAP 6500+ LC/MS/MS system (Applied Biosystems, Foster City, CA). Each analyte was characterized by Turbo IonSpray ionization multiple reaction monitoring (MRM). Quantitative drug concentrations were determined by standard calibration curve analysis, using linear fitting with 1/x^2 weighted plot of the analyte/IS peak area ratio vs analyte concentration. […]

PDAC PDO model T031P = assay: In vitro organoid growth assay (CellTiter-Glo 3D), T031P; type: cell-based, human; conditions: 30 μM, 120 hours of treatment
Protocol: Patient derived organoids were established as previously described. Briefly, PDX tumor chunks were minced then enzymatically digested into single cells by using a tumor dissociation Kit (Miltenyi, Cat# 130-095-929). Mouse and human cells were separated through magnetic separation, and isolated tumor cells were cultured on Matrigel-coated dishes. […]
Organoids were isolated and dissociated as described above. Cell numbers were counted by trypan blue exclusion and 5000 cells per well were plated on the Matrigel coated and pre-warmed 96-well plates. […] 100 μl of CellTiter-Glo® 3D reagent (Promega cat# G9682) was added to each well after desired time points and luminescence signal measured after 30 minutes.
Supplementary file pone.0248034.s010.tif: S6 Fig Schematic of Patient-derived organoids (PDO) growth & formation assays. […] After the indicated treatment schedule organoid growth or formation was assessed by CTG assay. […]

tumor concentration ([2]; in combination with gemcitabine): 222 pmol/g
tumor concentration ([2]; single agent): 47 pmol/g
Structure (SMILES): O=C(O)[C@@H]1CCC(c2nn(C(=O)c3c(Cl)cccc3C(F)(F)F)c3cccc(F)c23)=C[C@H]1O [Compound 3]
Klf7 and Osmr expression in tumors ([1]; all treatment groups (alone or with gemcitabine)): decreased in all treatment groups
Msi2 expression in tumors ([1]; combination of Compound 3 and gemcitabine): significant decrease
decrease of organoid growth (PDAC PDO model T031P): ~ 30%

Source: article PMC8577775, “Small molecule allosteric inhibitors of RORγt block Th17-dependent inflammation and associated gene expression in vivo” (PLoS ONE, 2021)
